# Assay results reported in ChEMBL document CHEMBL1136335, “Structure elucidation of Sch 538415, a novel acyl carrier protein synthase inhibitor from a microorganism” (Bioorg Med Chem Lett, 2003).
# Legend:
# [1] = In vitro inhibitory activity against bacterial Holo-[acyl-carrier-protein] synthase; design: species or system Staphylococcus aureus
# Staphylococcus aureus = test: Antibacterial activity against Staphylococcus aureus(FDA 209P strain) at a concentration of 5 ug; assay type: functional
compound,measurement,setting,value
Cc1cc(=O)n(C)c2c1C(=O)c1c(C)cc(=O)n(C)c1C2=O [DIAZAANTHRAQUINONE],IC50,[1],4.19 µM
same,Zone of inhibition,Staphylococcus aureus,12 mm
